# Publication PMC5392334, “Discovery and characterization of a novel irreversible EGFR mutants selective and potent kinase inhibitor CHMFL-EGFR-26 with a distinct binding mode” (Oncotarget, 2017)
# What was measured:
# Experiment in all cases: KinomeScan
# Format in all cases: binding
# Conditions in all cases: read-out: % control
# [1] = target: T1, PAK7 (Homo sapiens, UniProt Q9P286)
# T1 construct: purchased DiscoveRx KINOMEscan
# [2] = target: T2, MAP4K2 (Homo sapiens, UniProt Q12851)
# T2 construct: purchased DiscoveRx KINOMEscan
# [3] = target: T3, PIK3CA (Homo sapiens, UniProt P42336)
# T3 construct: purchased DiscoveRx KINOMEscan
# [4] = target: T4, VEGFR2 (Homo sapiens, UniProt P35968)
# T4 construct: purchased DiscoveRx KINOMEscan
# [5] = target: T5, TRKB (Homo sapiens, UniProt Q16620)
# T5 construct: purchased DiscoveRx KINOMEscan
# [6] = target: T6, PFPK5(P.falciparum) (Plasmodium falciparum, UniProt P61075)
# T6 construct: purchased DiscoveRx KINOMEscan
# [7] = target: T7, BRAF (Homo sapiens, UniProt P15056)
# T7 construct: purchased DiscoveRx KINOMEscan
# [8] = target: T8, TIE2 (Homo sapiens, UniProt Q02763)
# T8 construct: purchased DiscoveRx KINOMEscan
# [9] = target: T9, SRC (Homo sapiens, UniProt P12931)
# T9 construct: purchased DiscoveRx KINOMEscan
# [10] = target: T10, HCK (Homo sapiens, UniProt P08631)
# T10 construct: purchased DiscoveRx KINOMEscan
# [11] = target: T11, EPHB3 (Homo sapiens, UniProt P54753)
# T11 construct: purchased DiscoveRx KINOMEscan
# [12] = target: T12, FES (Homo sapiens, UniProt P07332)
# T12 construct: purchased DiscoveRx KINOMEscan
# [13] = target: T13, DDR2 (Homo sapiens, UniProt Q16832)
# T13 construct: purchased DiscoveRx KINOMEscan
# [14] = target: T14, IKK-epsilon (Homo sapiens, UniProt Q14164)
# T14 construct: purchased DiscoveRx KINOMEscan
# [15] = target: T15, MLK2 (Homo sapiens, UniProt Q02779)
# T15 construct: purchased DiscoveRx KINOMEscan
# [16] = target: T16, CSNK1E (Homo sapiens, UniProt P49674)
# T16 construct: purchased DiscoveRx KINOMEscan
# [17] = target: T17, AAK1 (Homo sapiens, UniProt Q2M2I8)
# T17 construct: purchased DiscoveRx KINOMEscan
# [18] = target: T18, PIK3CD (Homo sapiens, UniProt O00329)
# T18 construct: purchased DiscoveRx KINOMEscan
# [19] = target: T19, NEK3 (Homo sapiens, UniProt P51956)
# T19 construct: purchased DiscoveRx KINOMEscan
# [20] = target: T20, PIP5K1A (Homo sapiens, UniProt Q99755)
# T20 construct: purchased DiscoveRx KINOMEscan
# [21] = target: T21, YANK3 (Homo sapiens, UniProt Q86UX6)
# T21 construct: purchased DiscoveRx KINOMEscan
# [22] = target: T22, IKK-beta (Homo sapiens, UniProt O14920)
# T22 construct: purchased DiscoveRx KINOMEscan
# [23] = target: RPS6KA4(Kin.Dom.2-C-terminal) (Homo sapiens, UniProt O75676)
# [24] = target: T23, MUSK (Homo sapiens, UniProt O15146)
# T23 construct: purchased DiscoveRx KINOMEscan
# [25] = target: T24, INSR (Homo sapiens, UniProt P06213)
# T24 construct: purchased DiscoveRx KINOMEscan
# [26] = target: T25, CDKL5 (Homo sapiens, UniProt O76039)
# T25 construct: purchased DiscoveRx KINOMEscan
# [27] = target: T26, RPS6KA4(Kin.Dom.1-N-terminal) (Homo sapiens, UniProt O75676)
# T26 construct: RPS6KA4(Kin.Dom.1-N-terminal); purchased DiscoveRx KINOMEscan
# [28] = target: T27, ROCK1 (Homo sapiens, UniProt Q13464)
# T27 construct: purchased DiscoveRx KINOMEscan
# [29] = target: T28, RSK4(Kin.Dom.2-C-terminal) (Homo sapiens, UniProt Q9UK32)
# T28 construct: RSK4(Kin.Dom.2-C-terminal); purchased DiscoveRx KINOMEscan
# [30] = target: T29, ALK (Homo sapiens, UniProt Q9UM73)
# T29 construct: purchased DiscoveRx KINOMEscan
# [31] = target: T30, LRRK2(G2019S) (Homo sapiens, UniProt Q5S007, G2019S)
# T30 construct: purchased DiscoveRx KINOMEscan
# [32] = target: T31, CAMK1B (Homo sapiens, UniProt Q6P2M8)
# T31 construct: purchased DiscoveRx KINOMEscan
# T31 sequence (Q6P2M8 whole entry): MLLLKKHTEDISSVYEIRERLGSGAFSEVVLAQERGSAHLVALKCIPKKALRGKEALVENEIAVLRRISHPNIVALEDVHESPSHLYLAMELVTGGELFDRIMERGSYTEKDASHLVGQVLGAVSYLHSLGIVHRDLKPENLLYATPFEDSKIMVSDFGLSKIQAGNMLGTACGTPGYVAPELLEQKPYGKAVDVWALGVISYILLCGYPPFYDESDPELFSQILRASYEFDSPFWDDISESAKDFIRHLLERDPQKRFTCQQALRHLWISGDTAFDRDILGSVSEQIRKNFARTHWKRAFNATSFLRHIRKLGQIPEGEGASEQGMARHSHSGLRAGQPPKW
# T19 sequence (P51956 whole entry): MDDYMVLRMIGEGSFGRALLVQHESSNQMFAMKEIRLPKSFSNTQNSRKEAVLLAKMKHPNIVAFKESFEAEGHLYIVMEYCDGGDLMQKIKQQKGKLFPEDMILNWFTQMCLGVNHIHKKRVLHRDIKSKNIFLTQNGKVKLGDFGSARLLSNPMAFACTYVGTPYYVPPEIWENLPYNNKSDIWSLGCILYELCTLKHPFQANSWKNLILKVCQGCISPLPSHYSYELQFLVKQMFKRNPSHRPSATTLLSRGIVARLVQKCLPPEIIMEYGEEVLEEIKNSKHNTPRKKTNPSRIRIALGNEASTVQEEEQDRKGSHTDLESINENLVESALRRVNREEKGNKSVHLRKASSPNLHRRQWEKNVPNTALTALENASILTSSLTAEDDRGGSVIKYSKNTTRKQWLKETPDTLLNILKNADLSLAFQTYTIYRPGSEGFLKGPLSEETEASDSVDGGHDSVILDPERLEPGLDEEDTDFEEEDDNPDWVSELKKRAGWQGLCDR
# T17 sequence (Q2M2I8 whole entry): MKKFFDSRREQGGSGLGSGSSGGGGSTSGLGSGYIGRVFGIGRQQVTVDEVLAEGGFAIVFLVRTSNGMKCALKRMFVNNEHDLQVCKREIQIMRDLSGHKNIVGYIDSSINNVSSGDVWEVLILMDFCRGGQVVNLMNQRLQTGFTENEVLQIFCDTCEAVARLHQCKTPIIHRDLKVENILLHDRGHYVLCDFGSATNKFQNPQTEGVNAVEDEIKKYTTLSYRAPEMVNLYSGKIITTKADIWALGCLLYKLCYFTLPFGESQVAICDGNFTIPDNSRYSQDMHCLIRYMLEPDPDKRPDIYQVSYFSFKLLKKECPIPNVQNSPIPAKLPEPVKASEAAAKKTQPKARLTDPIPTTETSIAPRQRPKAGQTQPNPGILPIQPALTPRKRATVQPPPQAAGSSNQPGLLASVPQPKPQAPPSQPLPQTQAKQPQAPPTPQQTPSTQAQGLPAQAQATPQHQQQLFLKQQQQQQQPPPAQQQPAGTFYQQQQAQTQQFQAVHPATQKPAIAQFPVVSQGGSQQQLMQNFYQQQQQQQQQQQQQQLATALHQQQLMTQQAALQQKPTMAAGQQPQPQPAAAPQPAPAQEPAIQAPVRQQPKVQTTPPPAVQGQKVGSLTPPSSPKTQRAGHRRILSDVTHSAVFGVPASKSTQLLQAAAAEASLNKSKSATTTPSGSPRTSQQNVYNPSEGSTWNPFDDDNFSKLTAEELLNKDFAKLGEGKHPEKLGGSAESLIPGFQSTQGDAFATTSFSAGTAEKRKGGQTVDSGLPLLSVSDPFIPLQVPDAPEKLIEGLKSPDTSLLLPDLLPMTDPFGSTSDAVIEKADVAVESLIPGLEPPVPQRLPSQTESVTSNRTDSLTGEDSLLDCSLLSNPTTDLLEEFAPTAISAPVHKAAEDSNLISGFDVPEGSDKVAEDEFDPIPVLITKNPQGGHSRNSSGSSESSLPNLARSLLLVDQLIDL
# T1 sequence (Q9P286 whole entry): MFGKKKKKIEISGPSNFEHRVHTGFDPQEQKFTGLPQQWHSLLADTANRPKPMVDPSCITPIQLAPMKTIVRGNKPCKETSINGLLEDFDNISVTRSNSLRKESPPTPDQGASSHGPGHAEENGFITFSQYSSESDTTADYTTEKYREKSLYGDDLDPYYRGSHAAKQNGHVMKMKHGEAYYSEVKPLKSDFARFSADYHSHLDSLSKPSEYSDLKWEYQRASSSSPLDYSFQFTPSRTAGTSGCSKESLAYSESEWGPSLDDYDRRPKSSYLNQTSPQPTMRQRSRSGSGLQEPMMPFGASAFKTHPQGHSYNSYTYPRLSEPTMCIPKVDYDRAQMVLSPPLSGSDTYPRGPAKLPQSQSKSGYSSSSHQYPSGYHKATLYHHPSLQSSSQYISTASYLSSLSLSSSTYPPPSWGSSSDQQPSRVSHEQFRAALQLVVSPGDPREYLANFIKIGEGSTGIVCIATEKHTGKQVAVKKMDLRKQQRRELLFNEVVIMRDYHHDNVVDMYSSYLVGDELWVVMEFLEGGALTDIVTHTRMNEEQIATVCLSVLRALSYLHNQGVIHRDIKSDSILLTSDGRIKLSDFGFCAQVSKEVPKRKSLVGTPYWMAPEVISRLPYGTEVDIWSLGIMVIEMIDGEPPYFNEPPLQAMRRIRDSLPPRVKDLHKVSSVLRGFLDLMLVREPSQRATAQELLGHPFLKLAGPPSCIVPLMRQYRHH
# T12 sequence (P07332 whole entry): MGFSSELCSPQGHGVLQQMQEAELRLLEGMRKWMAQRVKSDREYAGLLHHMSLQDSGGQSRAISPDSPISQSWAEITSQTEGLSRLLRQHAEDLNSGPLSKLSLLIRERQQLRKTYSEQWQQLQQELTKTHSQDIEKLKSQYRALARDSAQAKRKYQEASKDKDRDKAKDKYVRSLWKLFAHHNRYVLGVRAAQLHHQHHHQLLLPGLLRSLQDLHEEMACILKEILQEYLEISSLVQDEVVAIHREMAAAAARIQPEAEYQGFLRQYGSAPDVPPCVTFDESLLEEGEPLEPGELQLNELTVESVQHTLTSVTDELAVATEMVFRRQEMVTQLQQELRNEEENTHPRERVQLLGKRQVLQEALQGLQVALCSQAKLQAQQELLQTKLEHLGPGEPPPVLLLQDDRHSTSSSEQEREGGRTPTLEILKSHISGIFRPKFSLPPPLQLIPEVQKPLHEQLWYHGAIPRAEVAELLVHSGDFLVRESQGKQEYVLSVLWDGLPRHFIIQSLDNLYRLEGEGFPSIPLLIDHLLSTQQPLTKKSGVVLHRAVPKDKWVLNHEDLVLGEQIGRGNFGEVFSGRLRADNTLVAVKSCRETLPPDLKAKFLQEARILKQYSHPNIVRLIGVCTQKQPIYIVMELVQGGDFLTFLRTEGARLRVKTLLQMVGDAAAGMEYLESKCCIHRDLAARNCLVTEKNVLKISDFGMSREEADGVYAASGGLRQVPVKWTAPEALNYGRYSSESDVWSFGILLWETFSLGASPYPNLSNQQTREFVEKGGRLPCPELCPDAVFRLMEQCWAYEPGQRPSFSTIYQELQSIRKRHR
# T9 sequence (P12931 whole entry): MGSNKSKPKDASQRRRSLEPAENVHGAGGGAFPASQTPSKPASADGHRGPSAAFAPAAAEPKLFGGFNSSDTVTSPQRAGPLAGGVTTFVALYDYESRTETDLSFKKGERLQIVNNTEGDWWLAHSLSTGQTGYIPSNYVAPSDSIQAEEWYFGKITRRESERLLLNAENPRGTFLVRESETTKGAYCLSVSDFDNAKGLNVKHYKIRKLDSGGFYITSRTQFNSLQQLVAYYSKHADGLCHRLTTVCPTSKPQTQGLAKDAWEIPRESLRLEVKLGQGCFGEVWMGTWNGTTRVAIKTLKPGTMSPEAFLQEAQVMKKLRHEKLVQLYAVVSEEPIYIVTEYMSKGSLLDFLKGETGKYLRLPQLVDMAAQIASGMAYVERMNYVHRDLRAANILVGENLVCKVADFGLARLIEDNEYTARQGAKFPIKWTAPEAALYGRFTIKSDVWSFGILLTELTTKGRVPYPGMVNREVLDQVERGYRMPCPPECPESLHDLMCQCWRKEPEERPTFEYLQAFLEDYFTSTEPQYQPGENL
# T13 sequence (Q16832 22-855): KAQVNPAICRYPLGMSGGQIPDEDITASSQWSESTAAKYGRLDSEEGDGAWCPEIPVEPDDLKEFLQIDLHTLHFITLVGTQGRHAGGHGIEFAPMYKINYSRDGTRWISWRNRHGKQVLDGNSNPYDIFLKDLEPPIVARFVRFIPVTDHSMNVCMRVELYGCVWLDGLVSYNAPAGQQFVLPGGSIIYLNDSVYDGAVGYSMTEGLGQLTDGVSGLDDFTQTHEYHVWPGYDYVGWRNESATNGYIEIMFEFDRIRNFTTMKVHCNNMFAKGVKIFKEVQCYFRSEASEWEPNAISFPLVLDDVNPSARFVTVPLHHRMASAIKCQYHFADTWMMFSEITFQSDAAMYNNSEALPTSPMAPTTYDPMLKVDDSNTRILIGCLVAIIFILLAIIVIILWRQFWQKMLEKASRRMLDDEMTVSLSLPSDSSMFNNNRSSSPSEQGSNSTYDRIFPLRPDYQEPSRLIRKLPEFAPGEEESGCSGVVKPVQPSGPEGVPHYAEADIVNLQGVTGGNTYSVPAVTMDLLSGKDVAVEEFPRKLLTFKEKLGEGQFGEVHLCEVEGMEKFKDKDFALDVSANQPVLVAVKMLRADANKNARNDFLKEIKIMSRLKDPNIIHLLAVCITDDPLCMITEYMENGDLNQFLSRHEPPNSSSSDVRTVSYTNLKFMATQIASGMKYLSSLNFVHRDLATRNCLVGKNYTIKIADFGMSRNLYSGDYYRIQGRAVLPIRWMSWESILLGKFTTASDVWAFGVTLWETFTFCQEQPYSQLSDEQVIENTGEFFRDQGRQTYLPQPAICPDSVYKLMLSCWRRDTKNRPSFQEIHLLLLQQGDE
# T6 sequence (P61075 whole entry): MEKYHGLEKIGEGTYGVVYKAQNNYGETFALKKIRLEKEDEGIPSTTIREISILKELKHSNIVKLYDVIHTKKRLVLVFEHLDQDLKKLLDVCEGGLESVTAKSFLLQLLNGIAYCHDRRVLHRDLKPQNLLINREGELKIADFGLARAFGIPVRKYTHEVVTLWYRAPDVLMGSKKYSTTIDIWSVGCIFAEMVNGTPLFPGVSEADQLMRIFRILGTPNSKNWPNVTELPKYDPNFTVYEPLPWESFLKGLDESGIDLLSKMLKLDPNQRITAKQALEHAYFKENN
smiles,measurement,setting,value
C=CC(=O)N1CCC[C@@H](n2nc(-c3ccc(OCc4cccc(C)n4)c(Cl)c3)c3c(N)ncnc32)C1 [CHMFL-EGFR-26],remaining binding at 1 µM,[1],67%
same,remaining binding at 1 µM,[2],100%
same,remaining binding at 1 µM,[3],100%
same,remaining binding at 1 µM,[4],100%
same,remaining binding at 1 µM,[5],100%
same,remaining binding at 1 µM,[6],100%
same,remaining binding at 1 µM,[7],85%
same,remaining binding at 1 µM,[8],78%
same,remaining binding at 1 µM,[9],100%
same,remaining binding at 1 µM,[10],44%
same,remaining binding at 1 µM,[11],100%
same,remaining binding at 1 µM,[12],97%
same,remaining binding at 1 µM,[13],90%
same,remaining binding at 1 µM,[14],100%
same,remaining binding at 1 µM,[15],80%
same,remaining binding at 1 µM,[16],9.1%
same,remaining binding at 1 µM,[17],96%
same,remaining binding at 1 µM,[18],100%
same,remaining binding at 1 µM,[19],83%
same,remaining binding at 1 µM,[20],100%
same,remaining binding at 1 µM,[21],90%
same,remaining binding at 1 µM,[22],98%
same,remaining binding at 1 µM,[23],100%
same,remaining binding at 1 µM,[24],84%
same,remaining binding at 1 µM,[25],100%
same,remaining binding at 1 µM,[26],100%
same,remaining binding at 1 µM,[27],11%
same,remaining binding at 1 µM,[28],100%
same,remaining binding at 1 µM,[29],72%
same,remaining binding at 1 µM,[30],100%
same,remaining binding at 1 µM,[31],100%
same,remaining binding at 1 µM,[32],82%
